Data as given in patent US6337346B1 (University of North Carolina at Chapel Hill, priority 1998, dated 2002).
Converted amounts (≈) assume the structure as drawn. Read-outs that look alike come from different tables or passages of the source.

How the values were obtained:
KB cells [1] = experiment: Preliminary KB cell assay (cytotoxicity); assay type: cell-based; conditions: Homo sapiens, numbering of Examples 14-16, read-out: ED50 (the source's name)
Experimental: Many anthraquinones, including mitoxantrone (1), show antineoplastic activity (Zee-Cheng, R. Y.; Podrebarac, E. G; Menon, C. S.; Cheng, C. C. J. Med. Chem. 1979, 22, 501-505). In addition, the natural product 2-acetyl-4H, 9H-naphtho[2,3-b]furan-4,9-dione (2) isolated from Tabebuia cassinoids (Lam.) DC.
The unsubstituted (3), two mono-acetyl (5, 6), and two di-acetyl (9, 10) derivatives were tested for cytotoxicity in a preliminary KB cell assay.

LOX IMVI = experiment: NCI in vitro disease-oriented tumor cells screen; assay type: cell-based, human; conditions: Homo sapiens, Melanoma LOX IMVI, average of at least two testings, read-out: Cytotoxicity log GI50 (converted)
Excerpt: (§1) (Activity is defined as log GI50<−4 where GI50 is the molar concentration causing 50% cell growth inhibition).

MALME-3M = experiment: NCI in vitro disease-oriented tumor cells screen; assay type: cell-based, human; conditions: Homo sapiens; Melanoma MALME-3M; Table 2; average of at least two testings; read-out: Cytotoxicity log GI50 (converted)
Excerpt: as §1

M14 = experiment: NCI in vitro disease-oriented tumor cells screen; assay type: cell-based, human; conditions: Homo sapiens; Melanoma M14; Table 2; average of at least two testings; read-out: Cytotoxicity log GI50 (converted)
Excerpt: as §1

SK-MEL-2 [2] = experiment: NCI in vitro disease-oriented tumor cells screen; assay type: cell-based, human; conditions: Homo sapiens; Melanoma SK-MEL-2; Table 2; average of at least two testings; read-out: Cytotoxicity log GI50 (converted)
Excerpt: as §1

SK-MEL-28 = experiment: NCI in vitro disease-oriented tumor cells screen; assay type: cell-based, human; conditions: Homo sapiens; Melanoma SK-MEL-28; Table 2; average of at least two testings; read-out: Cytotoxicity log GI50 (converted)
Excerpt: as §1

SK-MEL-5 = experiment: NCI in vitro disease-oriented tumor cells screen; assay type: cell-based, human; conditions: Homo sapiens, Melanoma SK-MEL-5, average of at least two testings, read-out: Cytotoxicity log GI50 (converted)
Excerpt: as §1

UACC-257 = experiment: NCI in vitro disease-oriented tumor cells screen; assay type: cell-based, human; conditions: Homo sapiens; Melanoma UACC-257; Table 2; average of at least two testings; read-out: Cytotoxicity log GI50 (converted)
Excerpt: as §1

UACC-62 = experiment: NCI in vitro disease-oriented tumor cells screen; assay type: cell-based, human; conditions: Homo sapiens; Melanoma UACC-62; Table 2; average of at least two testings; read-out: Cytotoxicity log GI50 (converted)
Excerpt: as §1

HL-60(TB) = experiment: NCI in vitro disease-oriented tumor cells screen; assay type: cell-based, human; conditions: Homo sapiens; Leukemia HL-60(TB); Table 2; average of at least two testings; read-out: Cytotoxicity log GI50 (converted)
NCI-H23 = experiment: NCI in vitro disease-oriented tumor cells screen; assay type: cell-based, human; conditions: Homo sapiens, Non-Small Cell Lung Cancer NCI-H23, average of at least two testings, read-out: Cytotoxicity log GI50 (converted)
Excerpt: as §1

OVCAR-3 = experiment: NCI in vitro disease-oriented tumor cells screen; assay type: cell-based, human; conditions: Homo sapiens, Ovarian Cancer OVCAR-3, average of at least two testings, read-out: Cytotoxicity log GI50 (converted)
Excerpt: as §1

OVCAR-8 = experiment: NCI in vitro disease-oriented tumor cells screen; assay type: cell-based, human; conditions: Homo sapiens; Ovarian Cancer OVCAR-8; Table 2; average of at least two testings; read-out: Cytotoxicity log GI50 (converted)
Excerpt: as §1

HS 578T = experiment: NCI in vitro disease-oriented tumor cells screen; assay type: cell-based, human; conditions: Homo sapiens; Breast Cancer HS 578T; Table 2; average of at least two testings; read-out: Cytotoxicity log GI50 (converted)
Excerpt: as §1

MDA-MB-435 = experiment: NCI in vitro disease-oriented tumor cells screen; assay type: cell-based, human; conditions: Homo sapiens, Breast Cancer MDA-MB-435, average of at least two testings, read-out: Cytotoxicity log GI50 (converted)
Excerpt: as §1

MDA-N = experiment: NCI in vitro disease-oriented tumor cells screen; assay type: cell-based, human; conditions: Homo sapiens, Breast Cancer MDA-N, average of at least two testings, read-out: Cytotoxicity log GI50 (converted)
Excerpt: as §1

BT-549 = experiment: NCI in vitro disease-oriented tumor cells screen; assay type: cell-based, human; conditions: Homo sapiens; Breast Cancer BT-549; Table 2; average of at least two testings; read-out: Cytotoxicity log GI50 (converted)
Excerpt: as §1

melanoma cell lines = experiment: NCI in vitro screen, melanoma cell lines as a group; assay type: cell-based, human; conditions: numbering of Examples 1-13
human tumor cell lines [3] = test system: human tumor cell lines
Excerpt: as §1

human tumor cell lines [4] = experiment: NCI in vitro screen, mean over all cell lines tested; conditions: Homo sapiens, read-out: Cytotoxicity log GI50, Mean Value (converted)
Excerpt: as §1

KB = experiment: Preliminary cytotoxicity testing of 6 and 16 (Table 1); assay type: cell-based; conditions: Homo sapiens, Table 1, preliminary testing
HCT-8 = experiment: as above; assay type: cell-based; conditions: Homo sapiens, Table 1, preliminary testing
P-399 = experiment: as above; assay type: cell-based; conditions: Table 1, preliminary testing
L-1210 = experiment: as above; assay type: cell-based; conditions: Mus musculus, L1210, Table 1, preliminary testing
A549 = experiment: as above; assay type: cell-based; conditions: Homo sapiens, Table 1, preliminary testing
CAKI-1 = experiment: as above; assay type: cell-based; conditions: Homo sapiens, Table 1, preliminary testing
MCF-7 = experiment: as above; assay type: cell-based; conditions: Homo sapiens, MCF7, Table 1, preliminary testing
[5] = test system: several leukemia cell lines; experiment: Preliminary cytotoxicity testing, summary in words; assay type: cell-based
CCRF-CEM = experiment: NCI in vitro human tumor cell line assay; assay type: cell-based; conditions: Leukemia CCRF-CEM, Table 3 (numbering of Examples 14-16), average of at least two testings, read-out: Cytotoxicity log GI50 (converted)
NCI-H460 = experiment: NCI in vitro human tumor cell line assay; assay type: cell-based; conditions: Non-Small Cell Lung Cancer NCI-H460, Table 3 (numbering of Examples 14-16), average of at least two testings, read-out: Cytotoxicity log GI50 (converted)
NCI-H552 = experiment: NCI in vitro human tumor cell line assay; assay type: cell-based; conditions: Non-Small Cell Lung Cancer NCI-H552, Table 3 (numbering of Examples 14-16), average of at least two testings, read-out: Cytotoxicity log GI50 (converted)
HCT-15 = experiment: NCI in vitro human tumor cell line assay; assay type: cell-based; conditions: Colon Cancer HCT-15, Table 3 (numbering of Examples 14-16), average of at least two testings, read-out: Cytotoxicity log GI50 (converted)
SW-620 = experiment: NCI in vitro human tumor cell line assay; assay type: cell-based; conditions: Colon Cancer SW-620, Table 3 (numbering of Examples 14-16), average of at least two testings, read-out: Cytotoxicity log GI50 (converted)
SF-539 = experiment: NCI in vitro human tumor cell line assay; assay type: cell-based; conditions: CNS Cancer SF-539, Table 3 (numbering of Examples 14-16), average of at least two testings, read-out: Cytotoxicity log GI50 (converted)
SNB-19 = experiment: NCI in vitro human tumor cell line assay; assay type: cell-based; conditions: CNS Cancer SNB-19, Table 3 (numbering of Examples 14-16), average of at least two testings, read-out: Cytotoxicity log GI50 (converted)
IGROV1 = experiment: NCI in vitro human tumor cell line assay; assay type: cell-based; conditions: IGROV-1, Ovarian Cancer IGROV1, Table 3 (numbering of Examples 14-16), average of at least two testings, read-out: Cytotoxicity log GI50 (converted)
MCF 7 = experiment: NCI in vitro human tumor cell line assay; assay type: cell-based; conditions: MCF7, Breast Cancer MCF 7, Table 3 (numbering of Examples 14-16), average of at least two testings, read-out: Cytotoxicity log GI50 (converted)
MCF 7/ADR-RES = experiment: NCI in vitro human tumor cell line assay; assay type: cell-based; conditions: MCF7, Breast Cancer MCF 7/ADR-RES, Table 3 (numbering of Examples 14-16), average of at least two testings, read-out: Cytotoxicity log GI50 (converted)
MOLT-4 [6] = conditions: human
MOLT-4 [7] = experiment: NCI in vitro human tumor cell line assay; conditions: MOLT-4, read-out: Cytotoxicity log GI50 (converted)
SK-MEL-2 [8] = experiment: Preliminary cytotoxicity testing of 6 and 16 (Table 1); assay type: cell-based; conditions: Homo sapiens, Table 1, preliminary testing
KB cells [9] = conditions: KB cells; background, numbering of Examples 1-13; cited from earlier work
[10] = Table 2 (numbering of Examples 1-13)
[11] = Table 3 (numbering of Examples 14-16)

melting point | Compound | EC50 (KB cells [1]) | GI50 (human tumor cell lines [4]) | IC50 (KB) | IC50 (HCT-8) | IC50 (A549) | IC50 (CAKI-1) | IC50 (MCF-7) | activity against several leukemia cell lines (in words) [5] | GI50 (LOX IMVI; [11]) | GI50 (SK-MEL-5; [11]) | GI50 (NCI-H23; [11]) | GI50 (OVCAR-3; [11]) | GI50 (MDA-MB-435; [11]) | GI50 (MDA-N; [11]) | GI50 (CCRF-CEM) | GI50 (NCI-H460) | GI50 (NCI-H552) | GI50 (HCT-15) | GI50 (SW-620) | other results
 | O=C1c2ccccc2C(=O)c2sccc21 [Compound 3, naphtho[2,3-b]thiophene-4,9-dione, reference compound] | 6500 nM |  |  |  |  |  |  |  |  |  |  |  |  |  |  |  |  |  |  | 
244 to 245 °C | CC(=O)c1csc2c1C(=O)c1ccccc1C2=O [Compound 6, 3-Acetyl-naphtho[2,3-b]thiophene-4,9-dione] | 5000 nM | 2140 nM | 0.058 µg/mL (≈ 0.226 µM) | 0.06 µg/mL (≈ 0.234 µM) | 0.048 µg/mL (≈ 0.187 µM) | 0.28 µg/mL (≈ 1.09 µM) | 0.09 µg/mL (≈ 0.351 µM) | significant activity | 2340 nM | 170 nM | 1050 nM | 3550 nM | 324 nM | 933 nM | 1550 nM | 1320 nM | 1740 nM | 17400 nM | 2190 nM | IC50 (P-399): < 0.1 µg/mL; IC50 (L-1210): 0.32 µg/mL (≈ 1.25 µM); GI50 (SF-539): 2040 nM; GI50 (SNB-19): 1780 nM; GI50 (IGROV1): 2450 nM; GI50 (MCF 7): 2090 nM; GI50 (MCF 7/ADR-RES): 2880 nM; Cytotoxicity log GI50 (MOLT-4 [6]): <−8.00 M; GI50 (MOLT-4 [7]): < 10 nM
 | O=C1c2ccsc2C(=O)c2sccc21 [Compound 16] |  |  | 0.05 µg/mL (≈ 0.227 µM) | 0.032 µg/mL (≈ 0.145 µM) | 0.032 µg/mL (≈ 0.145 µM) | 0.11 µg/mL (≈ 0.499 µM) | < 0.016 µg/mL | significant activity |  |  |  |  |  |  |  |  |  |  |  | IC50 (SK-MEL-2 [8]): 0.06 µg/mL (≈ 0.272 µM)
139 to 140 °C | CC(=O)c1cc2c(s1)C(=O)c1ccccc1C2=O [Compound 5, 2-Acetyl-naphtho[2,3-b]thiophene-4,9-dione] | ~1500 nM | 1950 nM |  |  |  |  |  |  | 347 nM | 347 nM | 447 nM | 501 nM | 339 nM | 1200 nM | 1000 nM | 457 nM | 407 nM | 708 nM | 457 nM | GI50 (SF-539): 759 nM; GI50 (SNB-19): 501 nM; GI50 (IGROV1): 1780 nM; GI50 (MCF 7): 1700 nM; GI50 (MCF 7/ADR-RES): 1910 nM; ED50 (KB cells [9]): 0.4 µg/mL (≈ 1.56 µM); GI50 (MOLT-4 [7]): 2040 nM

Compound | melting point | EC50 (KB cells [1]) | GI50 (human tumor cell lines [4]) | IC50 (KB) | IC50 (HCT-8) | IC50 (A549) | IC50 (CAKI-1) | IC50 (MCF-7) | activity against several leukemia cell lines (in words) [5] | GI50 (LOX IMVI; [11]) | GI50 (SK-MEL-5; [11]) | GI50 (NCI-H23; [11]) | GI50 (OVCAR-3; [11]) | GI50 (MDA-MB-435; [11]) | GI50 (MDA-N; [11]) | GI50 (CCRF-CEM) | GI50 (NCI-H460) | GI50 (NCI-H552) | GI50 (HCT-15) | GI50 (SW-620) | other results
CC(=O)OC(C)c1cc2c(s1)C(=O)c1c(C(C)OC(C)=O)csc1C2=O (stereo not drawn) [Compound 15, 2,7-Bis(1′-acetoxyethyl)-4,8-dihydrobenzo[1,2-b:4,5-b′]dithiophene-4,8-dione] | 180 to 182 °C |  | 1200 nM |  |  |  |  |  |  |  |  |  |  |  |  |  |  |  |  |  | GI50 (LOX IMVI; [10]): 1580 nM; GI50 (MALME-3M): 186 nM; GI50 (M14): 513 nM; GI50 (SK-MEL-2 [2]): 1550 nM; GI50 (SK-MEL-28): 1660 nM; GI50 (SK-MEL-5; [10]): 631 nM; GI50 (UACC-257): 631 nM; GI50 (UACC-62): 1100 nM; GI50 (HL-60(TB)): 67.6 nM; GI50 (NCI-H23; [10]): 871 nM; GI50 (OVCAR-3; [10]): 275 nM; GI50 (OVCAR-8): 457 nM; GI50 (HS 578T): 2090 nM; GI50 (MDA-MB-435; [10]): 186 nM; GI50 (MDA-N; [10]): 214 nM; GI50 (BT-549): 2140 nM; potency / selectivity towards melanoma cell lines (in words) (melanoma cell lines): not selective towards melanoma cell lines; overall cytotoxicity / potency (in words) (human tumor cell lines [3]): less active in all cell lines
